From article PMC9415646, “Improving Aqueous Solubility and In Vitro Pharmacokinetic Properties of the 3-Nitroimidazo[1,2-a]pyridine Antileishmanial Pharmacophore” (Pharmaceuticals, 2022)
≈ marks a conversion by molar mass, not a printed value.

What was measured:
[1] = Cytotoxicity on THP-1 cell line (MTT); format: cell-based; details: human, THP-1 cells, THP1 cell line
Protocol: The plates were incubated for 72 h at 37 °C. Each well plate was then microscope-examined for detecting possible precipitate formation before the medium was aspirated from the wells. 100 µL of MTT solution (0.5 mg/mL in medium) were then added to each well. Cells were incubated for 2 h at 37 °C. […] Plates were shaken vigorously (300 rpm) for 10 min. The absorbance was measured at 570 nm using a BIO-TEK ELx808 Absorbance Microplate Reader. DMSO was used as blank and doxorubicin (purchased from Sigma Aldrich) as positive control. Cell viability was calculated as percentage of control (cells incubated with DMSO). […] (Palo Alto, CA, USA). CC50 values represent the mean value calculated from three separate experiments.

[2] = Thermodynamic solubility at pH 7.4 (miniaturized shake-flask); format: physicochemical; details: pH 7.4, PBS, 23 °C; for solubility thermodynamic at 24 h: phosphate buffer (PBS), aqueous buffer, kinetic from dmso stock
Protocol: Thermodynamic solubility at pH 7.4 of compounds was determined according to a miniaturized shake-flask method (Organisation for Economic Cooperation and Development guideline n°105). Phosphate Buffer solutions (pH 7.4, […], ionic strength […]) were prepared from Na2HPO4, KH2PO4 and KCl (Sigma Aldrich, Saint Quentin Fallavier, France); 10 µL of 20 mM stock solution were added to 5 mL glass tubes containing […] buffer (n = 3). The tubes were briefly sonicated and shacked by inversion during 24 h at 23 °C. Then, the tube contents were placed in a microtube which was centrifuged at 12,225× g for 10 min; 100 µL supernatant were mixed with 100 µL acetonitrile in a Greiner UV microplate. Standard solutions were prepared extemporaneously, diluting 20 mM DMSO stock solutions at […]; 5 µL of each working solution were diluted with 995 µL buffer and 100 µL were then mixed in microplates with 100 µL acetonitrile so as to ensure that the final proportions of each solvent in standard solutions and samples remained unchanged. Solubility at pH 7.4 was determined with an Infinite M200Pro (Tecan, Lyon, France) microplate reader in spectrophotometric mode (230 to 450 nm) from the specific λmax of each compound. The calibration curve was obtained from the […] standard solutions of tested compounds at 0, 25, 50, and 100 µM in a 50:50 (vol/vol) mixture of buffer with acetonitrinile/DMSO (99:1; vol/vol). Calibration curves were linear with R^2 > 0.99.

[3] = system: L. infantum axenic amastigotes; experiment: Antileishmanial activity on L. infantum axenic amastigotes (luciferase assay); format: cell-based; details: Leishmania infantum, 48 h, read-out: EC50 L. infantum Axenic Ama.
Protocol: L. infantum promastigotes were harvested in logarithmic phase of growth by centrifugation at 900× g for 10 min. The supernatant was removed carefully and was replaced by the same volume of RPMI 1640 complete medium at pH 5.4 and incubated for 24 h at 24 °C. The acidified promastigotes were then incubated for 24 h at 37 °C in a ventilated flask to transform them into axenic amastigotes. The amastigote stage was checked both by electron microscopy (short flagellum with small bulbous tip extending beyond a spherical cell body) and RT-PCR to confirm the overexpression of ATG8 and amastin genes in amastigotes, relative to promastigotes. The effects of the tested compounds on the growth of L. infantum axenic amastigotes were assessed as follows. L. infantum amastigotes were incubated at a density of 2 × 10^6 parasites/mL in sterile 96-well plates with various concentrations of compounds dissolved in DMSO (final concentration less than 0.5% v/v), in duplicate. Appropriate controls treated with DMSO, amphotericin B, miltefosine, fexinidazole and fexinidazole sulfone were added to each set of experiments. After a 48 h incubation period at 37 °C, each plate-well was then microscopically examined to detect any precipitate formation.
• Luciferase activity and determination of EC50 were performed as above.

[4] = system: L. infantum promastigotes; experiment: Antileishmanial activity against L. infantum promastigotes (luciferase assay); format: cell-based; details: Leishmania infantum, 72 h, read-out: EC50 L. infantum Pro.
Protocol: L. infantum promastigotes (MHOM/MA/67/ITMAP-263, CNR Leishmania, Montpellier, France, expressing luciferase activity) were used in the following tests. The effects of the tested compounds on the growth of L. infantum promastigotes were assessed by Luciferase Assay. Briefly, promastigotes in log-phase in RPMI 1640 medium supplemented with 10% fetal calf serum (FCS), 2 mM L-glutamine and antibiotics (100U/mL penicillin, 100 µg/mL streptomycin and 50µg/mL geneticin), were incubated at an average density of 10^6 parasites/mL (100 µL/well) in sterile 96-well plates with various concentrations of compounds dissolved in DMSO (final concentration less than 0.5% v/v), in duplicate. Appropriate controls (100 µL/well) treated by DMSO and reference drugs (purchased for the majority from Sigma Aldrich) were added to each set of experiments. After a 72 h incubation period at 24 °C, each plate-well was then microscope-examined for detecting possible precipitate formation. To estimate the luciferase activities of promastigotes, 80 µL of each well are transferred in white 96-well plates, Steady Glow reagent (Promega) was added according to manufacter’s instructions, and plates were incubated for 2 min. The luminescence was measured in a FLUOstar Omega (BMG Labtech, Champigny-sur-Marne, France). […] EC50 were calculated by non-linear regression analysis processed on dose–response curves, using TableCurve 2D V5 software.

[5] = Mouse microsomal stability; format: in vitro ADME; details: female, CD-1, pH 7.4; mouse liver microsomes; read-out: Mouse Microsomal Stability T1/2
Protocol: The tested product and propranolol, used as reference, were incubated in duplicate (reaction volume of 0.5 mL) with female mouse microsomes (CD-1, 20 mg/mL, BD Gentest™) at 37 °C in a 50 mM phosphate buffer, pH 7.4, in the presence of MgCl2 (5 mM), NADP (1 mM), glucose-6-phosphate dehydrogenase (0.4 U/mL) and glucose-6-phosphate (5 mM). […] After centrifugation at 10,000× g, 10 min, 4 °C, the supernatants were maintained at 4 °C for immediate analysis or placed at -80 °C for later analysis. Controls (t0 and tfinal) in triplicate were prepared by incubation of the internal standard with microsomes denatured by acetonitrile. […] The mobile phases were (A) ammonium acetate 10 mM and (B) acetonitrile with 0.1% formic acid. The injection volume was 1 µL and the flow rate 600 µL/min. […] Each compound was quantified by converting the average of the ratios of the analyte/internal standard surfaces to the percentage of product consumed. The ratio of the control at t0 corresponded to 0% of product consumed. The half-life (T1/2) of each compound in the presence of microsomes was calculated according to the equation: t1/2=ln(2)/k , where k is the first-order degradation constant (the slope of the logarithm of compound concentration versus incubation time). The intrinsic clearance in vitro (Clint expressed in μL/min/mg) is calculated according to the equation: Clint=dose/AUC∞/[microsomes] where “dose” is the initial concentration of product in the sample, AUC∞ is the area under the concentration-time curve extrapolated to infinity and [microsomes] is the microsome concentration expressed in mg/µL.

| Compound | CC50 at 72 h [1] [nM] | solubility thermodynamic at 24 h [2] [µM] | EC50 [3] [nM] | EC50 [4] [nM] | half-life [5] [min] | Thermodynamic Solubility at pH 7.4 in PBS ([2]; 24 h) [µM] |
| --- | --- | --- | --- | --- | --- | --- |
| O=[N+]([O-])c1c(CS(=O)(=O)c2ccc(OC(F)(F)F)cc2)nc2c(Br)cc(Cl)cn12 [Compound 2f, 8-Bromo-6-Chloro-3-Nitro-2-[(4-Trifluoromethoxyphenylsulfonyl)methyl]imidazo[1,2-a] pyridine] | > 100000 | 8.6 ± 2.3 (≈ 4.43 µg/mL) | 2700 ± 400 | 6700 ± 800 |  |  |
| O=[N+]([O-])c1c(CS(=O)(=O)c2ccc(OC(F)(F)F)cc2)nc2c(Sc3ccc(Cl)cc3)cc(Cl)cn12 [Compound 3e, 6-Chloro-8-[(4-Chlorophenyl)thio]-3-Nitro-2-[(4-Trifluoromethoxyphenylsulfonyl)methyl]imidazo[1,2-a]pyridine] | > 100000 | 64.7 ± 7.3 (≈ 37.4 µg/mL) | 800 ± 200 | 3100 ± 200 |  |  |
| O=[N+]([O-])c1c(CS(=O)(=O)c2ccc(Cl)cc2)nc2c(Sc3ccc(Cl)cc3)cc(Cl)cn12 [Compound 3b, 6-Chloro-2-[(4-Chlorophenylsulfonyl)methyl]-8-[(4-Chlorophenyl)thio]-3-Nitroimidazo[1,2-a]pyridine] | > 15600 | < 2 | 1000 ± 100 | 1200 ± 100 | 4.5 |  |
| O=[N+]([O-])c1c(CS(=O)(=O)c2ccccc2)nc2c(Sc3ccc(Cl)cc3)cc(Cl)cn12 [Hit B, reference compound] | > 62500 |  | 1700 ± 300 | 600 ± 100 | 3 | 1.4 ± 0.5 |
| O=[N+]([O-])c1c(CS(=O)(=O)CCC(F)(F)F)nc2c(S(=O)(=O)c3ccc(Cl)cc3)cc(Cl)cn12 [Compound 6b, 6-Chloro-8-[(4-Chlorophenyl)sulfonyl]-3-Nitro-2-[(3,3,3-Trifluoropropylsulfonyl)methyl] imidazo[1,2-a]pyridine] | > 100000 |  | 2300 ± 300 | 13700 ± 900 | 7.9 |  |
| O=[N+]([O-])c1c(CS(=O)(=O)c2ccc(C(F)(F)F)cc2)nc2c(Sc3ccc(Cl)cc3)cc(Cl)cn12 [Compound 3d, 6-Chloro-8-[(4-Chlorophenyl)thio]-3-Nitro-2-[(4-Trifluoromethylphenylsulfonyl)methyl]imidazo[1,2-a]pyridine] | > 50000 | 2.5 ± 0.7 (≈ 1.41 µg/mL) | 800 ± 100 | 3300 ± 400 |  |  |
| O=[N+]([O-])c1c(CS(=O)(=O)c2ccc(O)cc2)nc2c(Sc3ccc(Cl)cc3)cc(Cl)cn12 [Compound 3a, 4-{[(6-Chloro-8-[(4-Chlorophenyl)thio]-3-Nitroimidazo[1,2-a]pyridin-2-yl)methyl]sulfonyl}phenol] | 28200 ± 100 |  | 1400 ± 300 | 5600 ± 900 |  |  |
| O=[N+]([O-])c1c(CS(=O)(=O)C2CC2)nc2c(Sc3ccc(Cl)cc3)cc(Cl)cn12 [Compound 3h, 6-Chloro-8-[(4-Chlorophenyl)thio]-2-[(cyclopropylsulfonyl)methyl]-3-Nitroimidazo[1,2-a]pyridine] | > 62500 | 3 ± 0.4 (≈ 1.38 µg/mL) | 2400 ± 100 | 2200 ± 300 |  |  |
| COc1ccc(S(=O)(=O)Cc2nc3c(Br)cc(Cl)cn3c2[N+](=O)[O-])cc1 [Compound 2g, 8-Bromo-6-Chloro-2-[(4-Methoxyphenylsulfonyl)methyl]-3-Nitroimidazo[1,2-a]pyridine] | > 100000 | 5.7 ± 1.3 (≈ 2.63 µg/mL) | 2300 ± 300 | 9300 ± 1200 |  |  |
| O=[N+]([O-])c1c(CS(=O)(=O)c2ccccc2)nc2c(Br)cc(Cl)cn12 [Hit A, 8-Bromo-6-chloro-3-nitro-2-(phenylsulfonylmethyl)imidazo[1,2-a]pyridine, reference compound] | > 100000 | 6.9 ± 1.5 (≈ 2.97 µg/mL) | 16400 ± 1300 | 8700 ± 700 | 11 |  |
| CSc1ccc(OCc2ncc([N+](=O)[O-])n2C)cc1 [Fexinidazole, reference compound] | > 100000 |  | 7800 ± 2300 | 1000 ± 100 |  |  |
| O=[N+]([O-])c1c(CS(=O)(=O)CCC(F)(F)F)nc2c(-c3ccncc3)cc(Cl)cn12 [Compound 7, 6-Chloro-3-Nitro-8-(Pyridin-4-yl)-2-[(3,3,3-Trifluoropropylsulfonyl)methyl]imidazo[1,2-a]pyridine] | > 100000 | 31.1 ± 3.7 (≈ 14 µg/mL) | 14000 ± 900 | 14000 ± 400 | > 40 |  |
| O=[N+]([O-])c1c(CS(=O)(=O)c2ccc(F)cc2)nc2c(Sc3ccc(Cl)cc3)cc(Cl)cn12 [Compound 3c, 6-Chloro-8-[(4-Chlorophenyl)thio]-2-[(4-Fluorophenylsulfonyl)methyl]-3-Nitroimidazo[1,2-a]pyridine] | > 100000 | < 2 | 200 ± 100 | 1500 ± 100 | 5.7 |  |
| COc1ccc(S(=O)(=O)Cc2nc3c(Sc4ccc(Cl)cc4)cc(Cl)cn3c2[N+](=O)[O-])cc1 [Compound 3f, 6-Chloro-8-[(4-Chlorophenyl)thio]-2-[(4-Methoxyphenylsulfonyl)methyl]-3-Nitroimidazo[1,2-a]pyridine] | > 50000 | < 2 | 500 ± 100 | 1200 ± 100 |  |  |
| O=[N+]([O-])c1c(CS(=O)(=O)CCC(F)(F)F)nc2c(Sc3ccc(Cl)cc3)cc(Cl)cn12 [Compound 3i, 6-Chloro-8-[(4-Chlorophenyl)thio]-3-Nitro-2-[(3,3,3-Trifluoropropylsulfonyl)methyl]imidazo[1,2-a]pyridine] | > 50000 | 12.4 ± 3 (≈ 6.38 µg/mL) | 800 ± 300 | 1400 ± 100 | 9.1 |  |
